In PubChem BioAssay (NCI):
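Following 48 hours of exposure in 96-well plates, responses at five concentrations were used to interpolate endpoints linearly. Abbreviation: GI50, concentration required for 50% inhibition of growth. TGI: total growth inhibition.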

Tests used:
Assay in all cases: NCI-60 cell line screen, 48 h
M14 melanoma = tested on: M14 melanoma
OVCAR-8 ovarian = tested on: OVCAR-8 ovarian
UACC-257 melanoma = tested on: UACC-257 melanoma
OVCAR-4 ovarian = tested on: OVCAR-4 ovarian
NCI-H23 lung = tested on: NCI-H23 lung
NCI/ADR-RES ovarian = tested on: NCI/ADR-RES ovarian
UO-31 renal = tested on: UO-31 renal
K-562 leukemia = tested on: K-562 leukemia
SK-MEL-2 melanoma = tested on: SK-MEL-2 melanoma
SF-295 CNS = tested on: SF-295 CNS
NCI-H226 lung = tested on: NCI-H226 lung
IGROV1 ovarian = tested on: IGROV1 ovarian
DU-145 prostate = tested on: DU-145 prostate
KM12 colon = tested on: KM12 colon
RPMI-8226 leukemia = tested on: RPMI-8226 leukemia
MCF7 breast = tested on: MCF7 breast
SW-620 colon = tested on: SW-620 colon
MDA-MB-231 breast = tested on: MDA-MB-231 breast
LOX IMVI melanoma = tested on: LOX IMVI melanoma
SR leukemia = tested on: SR leukemia
TK-10 renal = tested on: TK-10 renal
EKVX NSCLC = tested on: EKVX NSCLC
SF-268 CNS = tested on: SF-268 CNS
ACHN renal = tested on: ACHN renal
A498 renal = tested on: A498 renal
OVCAR-5 ovarian = tested on: OVCAR-5 ovarian
MDA-MB-435 = tested on: MDA-MB-435
HOP-62 NSCLC = tested on: HOP-62 NSCLC
SK-OV-3 ovarian = tested on: SK-OV-3 ovarian
COLO 205 colon = tested on: COLO 205 colon
HOP-92 NSCLC = tested on: HOP-92 NSCLC
U251 CNS = tested on: U251 CNS
SF-539 CNS = tested on: SF-539 CNS
PC-3 prostate = tested on: PC-3 prostate
SNB-19 CNS = tested on: SNB-19 CNS
A549 NSCLC = tested on: A549 NSCLC
CAKI-1 renal = tested on: CAKI-1 renal
HCT-15 colon = tested on: HCT-15 colon
HT29 colon = tested on: HT29 colon
786-0 renal = tested on: 786-0 renal
SK-MEL-28 melanoma = tested on: SK-MEL-28 melanoma
SN12C renal = tested on: SN12C renal
HCT-116 colon = tested on: HCT-116 colon
UACC-62 melanoma = tested on: UACC-62 melanoma
HL-60(TB) leukemia = tested on: HL-60(TB) leukemia
HS 578T breast = tested on: HS 578T breast
OVCAR-3 ovarian = tested on: OVCAR-3 ovarian
RXF 393 renal = tested on: RXF 393 renal
MOLT-4 leukemia = tested on: MOLT-4 leukemia
T-47D breast = tested on: T-47D breast
HCC-2998 colon = tested on: HCC-2998 colon
NCI-H522 lung = tested on: NCI-H522 lung
SNB-75 CNS = tested on: SNB-75 CNS
CCRF-CEM leukemia = tested on: CCRF-CEM leukemia
NCI-H460 lung = tested on: NCI-H460 lung
MALME-3M melanoma = tested on: MALME-3M melanoma
BT-549 breast = tested on: BT-549 breast
SK-MEL-5 melanoma = tested on: SK-MEL-5 melanoma

## CC(NC(=O)C(N)CCC(=O)O)C(=O)NCP(=O)(O)O (stereo unspecified)
M14 melanoma
  GI50: 15.9 µg/mL

## [N-]=[N+]=NI1OC(=O)c2ccccc21
OVCAR-8 ovarian
  TGI: > 100 µM
UACC-257 melanoma
  TGI: > 100 µM
OVCAR-4 ovarian
  TGI: > 100 µM
NCI-H23 lung
  TGI: > 100 µM
NCI/ADR-RES ovarian
  TGI: > 100 µM
UO-31 renal
  TGI: > 100 µM
K-562 leukemia
  TGI: > 100 µM
SK-MEL-2 melanoma
  TGI: > 100 µM
SF-295 CNS
  TGI: > 100 µM
NCI-H226 lung
  TGI: > 100 µM
IGROV1 ovarian
  TGI: > 100 µM
DU-145 prostate
  TGI: > 100 µM
KM12 colon
  TGI: > 100 µM
RPMI-8226 leukemia
  TGI: 65.7 µM
MCF7 breast
  TGI: > 100 µM
SW-620 colon
  TGI: > 100 µM
MDA-MB-231 breast
  TGI: > 100 µM
LOX IMVI melanoma
  TGI: > 100 µM
SR leukemia
  TGI: > 100 µM
TK-10 renal
  TGI: > 100 µM
EKVX NSCLC
  TGI: > 100 µM
SF-268 CNS
  TGI: > 100 µM
ACHN renal
  TGI: > 100 µM
A498 renal
  TGI: > 100 µM
OVCAR-5 ovarian
  TGI: > 100 µM
MDA-MB-435
  TGI: > 100 µM
HOP-62 NSCLC
  TGI: > 100 µM
SK-OV-3 ovarian
  TGI: > 100 µM
COLO 205 colon
  TGI: > 100 µM
HOP-92 NSCLC
  TGI: > 100 µM
U251 CNS
  TGI: > 100 µM
SF-539 CNS
  TGI: > 100 µM
PC-3 prostate
  TGI: > 100 µM
SNB-19 CNS
  TGI: > 100 µM
A549 NSCLC
  TGI: > 100 µM
CAKI-1 renal
  TGI: 46.9 µM
HCT-15 colon
  TGI: > 100 µM
HT29 colon
  TGI: > 100 µM
786-0 renal
  TGI: > 100 µM
SK-MEL-28 melanoma
  TGI: > 100 µM
SN12C renal
  TGI: > 100 µM
HCT-116 colon
  TGI: > 100 µM
UACC-62 melanoma
  TGI: > 100 µM
HL-60(TB) leukemia
  TGI: 84 µM
HS 578T breast
  TGI: > 100 µM
OVCAR-3 ovarian
  TGI: > 100 µM
RXF 393 renal
  TGI: > 100 µM
MOLT-4 leukemia
  TGI: > 100 µM
T-47D breast
  TGI: > 100 µM
HCC-2998 colon
  TGI: > 100 µM
NCI-H522 lung
  TGI: 40.6 µM
M14 melanoma
  TGI: > 100 µM
SNB-75 CNS
  TGI: > 100 µM
CCRF-CEM leukemia
  TGI: > 100 µM

## O=CNCNCCO
NCI-H460 lung
  TGI: > 100 µM
OVCAR-8 ovarian
  TGI: > 100 µM
OVCAR-4 ovarian
  TGI: > 100 µM
NCI-H23 lung
  TGI: > 100 µM
NCI/ADR-RES ovarian
  TGI: > 100 µM
UO-31 renal
  TGI: > 100 µM
K-562 leukemia
  TGI: > 100 µM
SK-MEL-2 melanoma
  TGI: > 100 µM
NCI-H226 lung
  TGI: > 100 µM
IGROV1 ovarian
  TGI: > 100 µM
DU-145 prostate
  TGI: > 100 µM
RPMI-8226 leukemia
  TGI: > 100 µM
MCF7 breast
  TGI: > 100 µM
SW-620 colon
  TGI: > 100 µM
SR leukemia
  TGI: > 100 µM
TK-10 renal
  TGI: > 100 µM
EKVX NSCLC
  TGI: > 100 µM
SF-268 CNS
  TGI: > 100 µM
ACHN renal
  TGI: > 100 µM
A498 renal
  TGI: > 100 µM
OVCAR-5 ovarian
  TGI: > 100 µM
HOP-62 NSCLC
  TGI: > 100 µM
SK-OV-3 ovarian
  TGI: > 100 µM
HOP-92 NSCLC
  TGI: > 100 µM
U251 CNS
  TGI: > 100 µM
SNB-19 CNS
  TGI: > 100 µM
A549 NSCLC
  TGI: > 100 µM
CAKI-1 renal
  TGI: > 100 µM
HCT-15 colon
  TGI: > 100 µM
HT29 colon
  TGI: > 100 µM
786-0 renal
  TGI: > 100 µM
SK-MEL-28 melanoma
  TGI: > 100 µM
HCT-116 colon
  TGI: > 100 µM
UACC-62 melanoma
  TGI: > 100 µM
HL-60(TB) leukemia
  TGI: 72.8 µM
HS 578T breast
  TGI: > 100 µM
OVCAR-3 ovarian
  TGI: > 100 µM
RXF 393 renal
  TGI: > 100 µM
MALME-3M melanoma
  TGI: > 100 µM
MOLT-4 leukemia
  TGI: > 100 µM
BT-549 breast
  TGI: > 100 µM
T-47D breast
  TGI: > 100 µM
SK-MEL-5 melanoma
  TGI: > 100 µM
HCC-2998 colon
  TGI: > 100 µM
M14 melanoma
  TGI: > 100 µM
SNB-75 CNS
  TGI: > 100 µM
CCRF-CEM leukemia
  TGI: > 100 µM

## CCCCCO/N=C\c1c2c(O)c3c(O)c(C)c4c(c3c1O)C(=O)C(C)(O/C=C\C(OC)C(C)C(OC(C)=O)C(C)C(O)C(C)C(O)C(C)/C=C\C=C(\C)C(=O)N2)O4 (stereo unspecified)
NCI-H460 lung
  GI50: 1.51 µM
  TGI: 2.83 µM
UACC-257 melanoma
  GI50: 2.3 µM
  TGI: 6.19 µM
OVCAR-4 ovarian
  GI50: 2.28 µM
  TGI: 6.1 µM
NCI-H23 lung
  GI50: 1.74 µM
  TGI: 3.44 µM
NCI/ADR-RES ovarian
  GI50: 1.79 µM
  TGI: 3.68 µM
K-562 leukemia
  GI50: 3.57 µM
  TGI: > 100 µM
SF-295 CNS
  GI50: 1.87 µM
  TGI: 4.3 µM
DU-145 prostate
  GI50: 1.93 µM
  TGI: 4.29 µM
KM12 colon
  GI50: 1.64 µM
  TGI: 3 µM
RPMI-8226 leukemia
  GI50: 2.34 µM
  TGI: 6.69 µM
MCF7 breast
  GI50: 1.71 µM
  TGI: 3.54 µM
SW-620 colon
  GI50: 1.68 µM
  TGI: 3.04 µM
MDA-MB-231 breast
  GI50: 1.75 µM
  TGI: 3.2 µM
LOX IMVI melanoma
  GI50: 1.65 µM
  TGI: 3.01 µM
SR leukemia
  GI50: 2.88 µM
  TGI: 7.34 µM
EKVX NSCLC
  GI50: 2.09 µM
  TGI: 6.95 µM
SF-268 CNS
  GI50: 1.66 µM
  TGI: 3.23 µM
ACHN renal
  GI50: 1.8 µM
  TGI: 3.33 µM
A498 renal
  GI50: 1.64 µM
  TGI: 3.16 µM
OVCAR-5 ovarian
  GI50: 1.94 µM
  TGI: 4.12 µM
MDA-MB-435
  GI50: 1.81 µM
  TGI: 3.68 µM
HOP-62 NSCLC
  GI50: 1.65 µM
  TGI: 3.04 µM
SK-OV-3 ovarian
  GI50: 2.29 µM
  TGI: 6.84 µM
COLO 205 colon
  GI50: 1.52 µM
  TGI: 2.85 µM
U251 CNS
  GI50: 1.84 µM
  TGI: 3.54 µM
SF-539 CNS
  GI50: 1.98 µM
  TGI: 3.86 µM
PC-3 prostate
  GI50: 1.65 µM
  TGI: 4.5 µM
SNB-19 CNS
  GI50: 1.67 µM
  TGI: 3.19 µM
A549 NSCLC
  GI50: 1.8 µM
  TGI: 3.39 µM
CAKI-1 renal
  GI50: 1.91 µM
  TGI: 4.5 µM
HCT-15 colon
  GI50: 1.79 µM
  TGI: 3.31 µM
786-0 renal
  GI50: 1.73 µM
  TGI: 3.25 µM
SK-MEL-28 melanoma
  GI50: 1.66 µM
  TGI: 3.02 µM
SN12C renal
  GI50: 1.63 µM
  TGI: 3.35 µM
HCT-116 colon
  GI50: 1.65 µM
  TGI: 3.01 µM
UACC-62 melanoma
  GI50: 1.39 µM
  TGI: 2.71 µM
HL-60(TB) leukemia
  GI50: 2.92 µM
  TGI: 6.34 µM
HS 578T breast
  GI50: 1.69 µM
  TGI: 4.2 µM
OVCAR-3 ovarian
  GI50: 1.5 µM
  TGI: 2.82 µM
RXF 393 renal
  GI50: 1.71 µM
  TGI: 3.1 µM
MOLT-4 leukemia
  GI50: 2.8 µM
  TGI: 9.1 µM
T-47D breast
  GI50: 2.15 µM
  TGI: 5.33 µM
SK-MEL-5 melanoma
  GI50: 1.5 µM
  TGI: 2.82 µM
HCC-2998 colon
  GI50: 1.65 µM
  TGI: 3.08 µM
M14 melanoma
  GI50: 1.62 µM
  TGI: 3.01 µM
SNB-75 CNS
  GI50: 1.46 µM
  TGI: 2.87 µM
CCRF-CEM leukemia
  GI50: 2.92 µM
  TGI: 10.2 µM
